In experiment [1] the test system is HSL+/+ adipocytes. Put plainly: Lipolysis (glycerol release) in HSL+/+ adipocytes from wild type mice. Format: cell-based, mouse. To be noted: for Lipolysis (nmol glycerol produced): HSL +/+, 2 hours; for stimulation of lipolysis, result in words: HSL+/+ adipocytes compared with HSL−/−. The procedure:
(§1) To determine whether adipomodulin acts through the classical HSL pathway, Sample 121 was tested in HSL+/+ and HSL−/− adipocytes derived from wild type and HSL knockout mice (obtained from Dr. Grant Mitchell, Sainte Justine Hospital, Montreal, Quebec, Canada), respectively. […] Lipolysis was measured as glycerol release from an adipocyte suspension. In each experiment, adipocytes were pooled from perigonadal fat of two to four 6-month-old mice of the same gender and genotype. One hundred microliters of adipocyte suspension were incubated for 2 hours in a final volume of […] of Krebs-Ringer-HEPES (30 mM) buffer (pH 7.4) supplemented with 2.5% BSA, 2.5% N6-[R-(−)-1-methyl-2-phenyl] adenosine ([…]), and 1 U/mL adenosine deaminase. In some tubes, the lipolytic beta3-adrenergic agonist CL316,243 ([…]) (Wyeth-Ayerst Research Laboratories, Princeton, N.J.) or cAMP agonist (dibutryl cAMP) were added. After a 2-hour incubation, the reaction was stopped by freezing on dry ice. The mixture was extracted with chloroform to remove triglycerides, and glycerol content was then determined by glycerol assay kit (Roche Diagnostics).

Experiment [2] deals with HSL−/− adipocytes. In words: Lipolysis (glycerol release) in HSL-/- adipocytes from HSL knockout mice. Type of experiment: cell-based, mouse. Conditions: 2 hours. Here is the method: as §1
Experiment [3] addresses receptor for adipomodulin on NIH 3T3-L1 adipocytes (mouse). Put plainly: 125I-ligand binding to 3T3-L1 adipocytes at 4 C, 2 h, competitor: excess unlabeled λ- + k-light chain mix.
Experiment [4] relates to NIH 3T3-L1 adipocytes. Put plainly: Lipolysis (glycerol) in differentiated NIH 3T3-L1 adipocytes (Example 8). To be noted: 0.1 mM, 4 hours, 37° C. Format: cell-based, mouse. The procedure:
(§2) Stimulation of lipolysis in differentiated 3T3-L1 cells was measured according to the procedure described in Hirsch, A. H. & Rosen, O. M., “Lipolytic stimulation modulates the subcellular distribution of hormone-sensitive lipase in 3T3-L1 cells,” J. Lipid Res., vol. 25, pp. 665-667 (1984), which is incorporated herein in its entirety. The 3T3-L1 preadipocyte cell line (from ATCC) was differentiated by treating confluent monolayers with dexamethasone 0.5 μM, 0.15 μM insulin, and methylisobutylxanthine (IBMX) 0.5 mM. After 48 hours, the cells were fed with fresh medium containing 0.15 μM insulin and maintained in culture for 24 hours. Next, the cells were maintained in insulin-free DMEM containing 10% fetal bovine serum for 4-5 days. On the day of experimentation, the differentiated cells were incubated in serum-free DMEM containing 0.2% fatty acid free BSA and 5 mM glucose and treated with adipomodulin, adipomodulin elution buffer, or IBMX at 37° C. for 4 hours. […] The levels of cAMP in the cytosol and the supernatant were measured by competitive radioimmunoassay. […] After several washing steps, the complexes of radioactive cAMP-antibody are counted in a gamma counter. […]

For experiment [5], the system named is cAMP. Put plainly: cAMP radioimmunoassay in differentiated NIH 3T3-L1 adipocytes. Type of experiment: cell-based, mouse. Here is the method:
as §2

The values that follow come from patent publication US7479540B1, “Adipomodulin and related molecules and methods” (priority 2003, dated 2009).

Values joined by “and” are separate entries in the source; they are usually repeats but may differ in a detail not shown here. Equal entries are not always repeated.

For the molecule `CC(C)NCC(O)c1ccc(O)c(O)c1` (stereo not drawn) [Isoproterenol, isoproterenol], the “Lipolysis (nmol glycerol produced)” value in experiment [1] (10 uM) was 5.8 ± 1.0 nmol glycerol produced; in experiment [2] (10 uM), 0.9 ± 0.2 nmol glycerol produced. Also, in experiment [1], the “stimulation of lipolysis, result in words” value is “stimulated lipolysis most dramatically in HSL+/+ adipocytes”.

Take `C[C@H](Cc1ccc2c(c1)OC(C(=O)[O-])(C(=O)[O-])O2)NC[C@H](O)c1cccc(Cl)c1.[Na+].[Na+]` [CL316, 243]: the “Lipolysis (nmol glycerol produced)” value in experiment [1] (10 uM) worked out at 6.2 ± 1.1 nmol glycerol produced; in experiment [2] (10 uM), 1.1 ± 0.3 nmol glycerol produced.

As for `CCCC(=O)Nc1ncnc2c1ncn2[C@@H]1O[C@@H]2COP(=O)(O)O[C@H]2[C@H]1OC(=O)CCC` [Dibutryl cAMP, dibutryl cAMP], the “Lipolysis (nmol glycerol produced)” value in experiment [1] (1 mM) is 7.6 ± 1.0 nmol glycerol produced; in experiment [2] (1 mM) it was 1.1 ± 0.1 nmol glycerol produced. For the same molecule, the “stimulation of lipolysis, result in words” value in experiment [1] was “stimulated lipolysis most dramatically in HSL+/+ adipocytes”.

For adipomodulin (Sample 122), in experiment [3], the Binding, CPM/well was 3230 CPM/well and 3840 CPM/well.

As for `CC(C)Cn1c(=O)n(C)c(=O)c2[nH]cnc21` [IBMX, methylisobutylxanthine], the Lipolysis in experiment [4] was 3400 ± 50 pmol glycerol/well. For the same molecule, the cAMP in experiment [5] (0.1 mM, 4 hours, 37° C.) is given as 69 ± 4 fmol/well. Besides, in experiment [5] (versus medium control and elution buffer controls), the “effect on cAMP, result in words” value is reported as “significant stimulation of cAMP”.
